This assay concerns the target β5c of hu c-20S (Homo sapiens (Human), UniProt P20618+P28074). Put plainly: IC50 determination against β5c of human constitutive proteasome (suc-LLVY-AMC hydrolysis).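 Note: IC50 obtained by fitting initial reaction velocities to a dose-dependent inhibition model, with SDS present as proteasome activator.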 In kind it is biochemical. To be noted: 0.2 nM c-20S, 25 μM suc-LLVY-AMC.
As a reminder, the IC50 is the concentration that inhibits the measured activity by half. Low readings indicate higher potency, high ones lower potency. `Cn1cc(CNC(=O)[C@@H]2Cc3cccc(c3)Oc3cccc(c3)C[C@H](N3CCCCC3)C(=O)N[C@@H](CCc3ccccc3)C(=O)N2)cn1` [Compound 1-01, (5S,8S,11S)—N-((1-Methyl-1H-pyrazol-4-yl)methyl)-7,10-dioxo-8-phenethyl-11-(piperidin-1-yl)-2-oxa-6,9-diaza-1,3(1,3)-dibenzenacyclododecaphane-5-carboxamide] showed an IC50 of 0.402 µM.

As to `CCN(CC)[C@H]1Cc2cccc(c2)Oc2cccc(c2)C[C@@H](C(=O)NC(C)C)NC(=O)[C@H](CCc2ccccc2)NC1=O` [Compound 1-25], the IC50 stood at 1.63 µM.

The molecule `O=C(NC[C@H]1CCCO1)[C@@H]1CCCCOc2cccc(c2)C[C@H](N2CCCC2=O)C(=O)N[C@@H](CCc2ccc(F)cc2)C(=O)N1` [Compound 3-30] yielded an IC50 of 85.3 µM.

For the molecule `CCC(=O)N[C@H]1Cc2cccc(c2)Oc2cccc(c2)C[C@@H](c2nc3ccccc3o2)NC(=O)[C@H](CCc2ccccc2)NC1=O` [Compound 1-42], half-maximal inhibition (IC50) was put at 5.93 µM.

`O=C(N[C@H]1Cc2cccc(c2)Oc2cccc(c2)C[C@@H](C(=O)NCc2ccccc2)NC(=O)[C@H](CCc2ccccc2)NC1=O)c1ccccc1` [Compound 1-15] registered an IC50 of 100 µM.

Turning to `CS(=O)(=O)N[C@H]1Cc2cccc(c2)Oc2cccc(c2)C[C@@H](C(=O)NCC2CC2)NC(=O)[C@H](CCc2ccccc2)NC1=O` [Compound 1-08], the IC50 came out at 1.78 µM.

As for `CCN(CC)[C@H]1Cc2cccc(c2)Oc2cccc(c2)C[C@@H](C(=O)NCC(C)C)NC(=O)[C@H](CCc2ccccc2)NC1=O` [Compound 1-29], the IC50 was determined as 2.2 µM.

Regarding `CCN(CC)C(=O)[C@@H]1Cc2cccc(c2)Oc2cccc(c2)C[C@H](NC(=O)c2ccncc2)C(=O)N[C@@H](CCc2ccccc2)C(=O)N1` [Compound 1-36], half-maximal inhibition (IC50) required 3.04 µM.

`CS(=O)(=O)CCNC(=O)[C@@H]1Cc2cccc(c2)Oc2cccc(c2)C[C@H](NC(=O)CO)C(=O)N[C@@H](CCc2ccccc2)C(=O)N1` [Compound 1-46] showed an IC50 of 9.5 µM.

As to `CC(C)CNC(=O)[C@@H]1Cc2cccc(c2)Oc2cccc(c2)C[C@H](NC(=O)c2cn(C)cn2)C(=O)N[C@@H](CCc2ccccc2)C(=O)N1` [Compound 1-32], the IC50 is 8.86 µM.

Take `CCCN(CCC)[C@H]1Cc2cccc(c2)Oc2cccc(c2)C[C@@H](C(=O)NC2CCCC2)NC(=O)[C@H](CCc2ccccc2)NC1=O` [Compound 1-21]: the IC50 amounted to 3.4 µM.

`CCNC(=O)[C@@H]1Cc2cccc(c2)Oc2cccc(c2)C[C@H](N(CC)CC)C(=O)N[C@@H](CCc2ccccc2)C(=O)N1` [Compound 1-27] returned a concentration for half-maximal inhibition (IC50) of 1.14 µM.

Turning to `CCCN(CCC)[C@H]1Cc2cccc(c2)Oc2cccc(c2)C[C@@H](C(=O)NCc2ccccc2)NC(=O)[C@H](CCc2ccccc2)NC1=O` [Compound 1-09], the IC50 came out at 0.503 µM.

For `O=C(N[C@H]1Cc2cccc(c2)Oc2cccc(c2)C[C@@H](C(=O)NCCC(F)(F)F)NC(=O)[C@H](CCc2ccccc2)NC1=O)c1ccccc1` [Compound 1-41], the IC50 is 5.7 µM.

`COC(=O)N[C@H]1Cc2cccc(c2)Oc2cccc(c2)C[C@@H](C(=O)NCC2CC2)NC(=O)[C@H](CCc2ccccc2)NC1=O` [Compound 1-06] displayed a 50% inhibitory concentration (IC50) of 0.542 µM.

`CCC(=O)N[C@H]1Cc2cccc(c2)Oc2cccc(c2)C[C@@H](C(=O)NC2CCCC2)NC(=O)[C@H](CCc2ccccc2)NC1=O` [Compound 1-19] registered an IC50 of 2.8 µM.

For the molecule `O=C(NC1CCCC1)[C@@H]1Cc2cccc(c2)Oc2cccc(c2)C[C@H](N2CCCC2)C(=O)N[C@@H](CCc2ccccc2)C(=O)N1` [Compound 1-18], the half-inhibitory concentration (IC50) was determined as 0.572 µM.

The molecule `O=C(CO)N[C@H]1Cc2cccc(c2)Oc2cccc(c2)C[C@@H](C(=O)NCc2ccccc2)NC(=O)[C@H](CCc2ccccc2)NC1=O` [Compound 1-11] displayed an IC50 of 1.93 µM.

Molecule `O=C(NCC1CC1)[C@@H]1CCCCOc2cccc(c2)C[C@H](N2CCCC2=O)C(=O)N[C@@H](CCN2CCOCC2)C(=O)N1` [Compound 3-17, (7S,10S,13S)—N-(Cyclopropylmethyl)-10-(2-morpholinoethyl)-9,12-dioxo-13-(2-oxopyrrolidin-1-yl)-2-oxa-8,11-diaza-1(1,3)-benzenacyclotetradecaphane-7-carboxamide] had an IC50 of 17.9 µM.

`CCC(=O)N[C@H]1Cc2cccc(c2)Oc2cccc(c2)C[C@@H](C(=O)NCc2ccccn2)NC(=O)[C@H](CCc2ccccc2)NC1=O` [Compound 1-48] had an IC50 of 10.2 µM.

As to `CCNC(=O)[C@@H]1Cc2cccc(c2)Oc2cccc(c2)C[C@H](N2CCCCC2)C(=O)N[C@@H](CCc2ccccc2)C(=O)N1` [Compound 1-28], inhibition was half-maximal at 2.47 µM (IC50).

Take `O=C(N[C@H]1Cc2cccc(c2)Oc2cccc(c2)C[C@@H](C(=O)NCC2CCOCC2)NC(=O)[C@H](CCc2ccccc2)NC1=O)c1cccnn1` [Compound 1-49]: half-maximal inhibition (IC50) required 11.9 µM.

Regarding `CC1(CNC(=O)[C@@H]2CCCCOc3cccc(c3)CCC(=O)N[C@@H](CCN3CCOCC3)C(=O)N2)CC1` [Compound 3-27], the IC50 turned out to be 34.6 µM.

As for `O=C1CCc2cccc(c2)Oc2cccc(c2)C[C@@H](C(=O)NCc2ccccc2F)NC(=O)[C@H](CCN2CCOCC2)N1` [Compound 1-91], half-maximal inhibition (IC50) was put at 0.47 µM.

`CCN[C@H]1Cc2cccc(c2)Oc2cccc(c2)C[C@@H](C(=O)NC2CCCC2)NC(=O)[C@H](CCc2ccccc2)NC1=O` [Compound 1-24, (5S,8S,11S)—N-Cyclopentyl-11-(methylamino)-7,10-dioxo-8-phenethyl-2-oxa-6,9-diaza-1,3(1,3)-dibenzenacyclododecaphane-5-carboxamide] registered an IC50 of 100 µM.

`CCC(=O)N[C@H]1Cc2cccc(c2)Oc2cccc(c2)C[C@@H](C(=O)NCc2ccccc2)NC(=O)[C@H](CCc2ccccc2)NC1=O` [Compound 1-14] gave an IC50 of 4.01 µM.

Molecule `O=C(NCC(F)(F)F)[C@@H]1CCCCOc2cccc(c2)C[C@H](N2CCCS2(=O)=O)C(=O)N[C@@H](CCN2CCOCC2)C(=O)N1` [Compound 3-19] registered an IC50 of 45 µM.

For `Cc1nn(C)cc1CNC(=O)[C@@H]1Cc2cccc(c2)Oc2cccc(c2)C[C@H](NS(C)(=O)=O)C(=O)N[C@@H](CCc2ccccc2)C(=O)N1` [Compound 1-38], the half-inhibitory concentration (IC50) was found to be 4.29 µM.

`CCC(=O)N[C@H]1Cc2cccc(c2)Oc2cccc(c2)C[C@@H](C(=O)NCC2CC2)NC(=O)[C@H](CCc2ccccc2)NC1=O` [Compound 1-07] registered an IC50 of 1.12 µM.

For the molecule `CS(=O)(=O)N[C@H]1Cc2cccc(c2)Oc2cccc(c2)C[C@@H](C(N)=O)NC(=O)[C@H](CCc2ccccc2)NC1=O` [Compound 1-35], inhibition was half-maximal at 3 µM (IC50).

Molecule `CCN(CC)[C@H]1Cc2cccc(c2)Oc2cccc(c2)C[C@@H](C(=O)NC2CCCC2)NC(=O)[C@H](CCc2ccccc2)NC1=O` [Compound 1-22] gave an IC50 of 41.6 µM.

In the case of `COCCC(=O)N[C@H]1Cc2cccc(c2)Oc2cccc(c2)C[C@@H](C(=O)NCc2cccnc2)NC(=O)[C@H](CCc2ccccc2)NC1=O` [Compound 1-33], the half-maximal inhibitory concentration (IC50) turned out to be 2.25 µM.

Take `CC(C)CNC(=O)[C@@H]1Cc2cccc(c2)Oc2cccc(c2)C[C@H](NC(=O)c2ccccc2)C(=O)N[C@@H](CCc2ccccc2)C(=O)N1` [Compound 1-31]: the midpoint of inhibition, the IC50, lay at 5 µM.

For the molecule `CC(C)NC(=O)[C@@H]1Cc2cccc(c2)Oc2cccc(c2)C[C@H](NC(=O)c2ccccc2)C(=O)N[C@@H](CCc2ccccc2)C(=O)N1` [Compound 1-26], inhibition was half-maximal at 6.93 µM (IC50).

On to `CC1CCCN1[C@H]1Cc2cccc(c2)Oc2cccc(c2)C[C@@H](C(=O)NCc2ccccc2)NC(=O)[C@H](CCc2ccccc2)NC1=O` (some centres unmarked) [Compound 1-10], for which it took 1.3 µM to reach half-maximal inhibition (IC50).

For the molecule `Cn1cnc(C(=O)N[C@H]2Cc3cccc(c3)Oc3cccc(c3)C[C@@H](C(=O)NCc3ccccc3)NC(=O)[C@H](CCc3ccccc3)NC2=O)c1` [Compound 1-13], half-maximal inhibition (IC50) was put at 3.52 µM.

For the molecule `CN1C(=O)[C@H](CCc2ccccc2)NC(=O)[C@@H](N2CCCC2=O)Cc2cccc(c2)OCCCC[C@H]1C(=O)NCC(F)(F)F` [Compound 3-33], the IC50 worked out at 25.8 µM.

`O=C(CO)N[C@H]1Cc2cccc(c2)Oc2cccc(c2)C[C@@H](C(=O)NC2CCCC2)NC(=O)[C@H](CCc2ccccc2)NC1=O` [Compound 1-20] returned a half-inhibitory concentration (IC50) of 3.25 µM.

Take `CN(C)CCC(=O)N[C@H]1Cc2cccc(c2)Oc2cccc(c2)C[C@@H](C(=O)NCC2CCCCN2C)NC(=O)[C@H](CCc2ccccc2)NC1=O` (some centres unmarked) [Compound 1-39]: the half-maximal inhibitory concentration (IC50) was 4.57 µM.

In turn, `CCN(CC)[C@H]1Cc2cccc(c2)Oc2cccc(c2)C[C@@H](C(=O)NCc2cnn(C)c2)NC(=O)[C@H](CCc2ccccc2)NC1=O` [Compound 1-02] registered an IC50 of 0.55 µM.

Take `COCCC(=O)N[C@H]1Cc2cccc(c2)Oc2cccc(c2)C[C@@H](C(=O)NCCC(F)(F)F)NC(=O)[C@H](CCc2ccccc2)NC1=O` [Compound 1-45]: the 50% inhibitory concentration (IC50) is 7.7 µM.

`O=C(N[C@H]1Cc2cccc(c2)Oc2cccc(c2)C[C@@H](C(=O)N2CCCC2)NC(=O)[C@H](CCc2ccccc2)NC1=O)C1COC1` [Compound 1-44]: the IC50 was found to be 7.52 µM.

In turn, `CCC(=O)N[C@H]1Cc2cccc(c2)Oc2cccc(c2)C[C@@H](C(=O)NCC(C)C)NC(=O)[C@H](CCc2ccccc2)NC1=O` [Compound 1-30] registered an IC50 of 4.21 µM.

For `COCC(=O)N[C@H]1Cc2cccc(c2)Oc2cccc(c2)C[C@@H](C(=O)NCC2CCCO2)NC(=O)[C@H](CCc2ccccc2)NC1=O` (some centres unmarked) [Compound 1-47], the midpoint of inhibition, the IC50, lay at 9.7 µM.

Molecule `CN1CCC(C(=O)N[C@H]2Cc3cccc(c3)Oc3cccc(c3)C[C@@H](C(=O)NCc3cnn(C)c3)NC(=O)[C@H](CCc3ccccc3)NC2=O)CC1` [Compound 1-03, (5S,8S,11S)—N-((1-Methyl-1H-pyrazol-4-yl)methyl)-11-(1-methylpiperidine-4-carboxamido)-7,10-dioxo-8-phenethyl-2-oxa-6,9-diaza-1,3(1,3)-dibenzenacyclododecaphane-5-carboxamide] registered an IC50 of 1 µM.

As for `COCCNC(=O)[C@@H]1Cc2cccc(c2)Oc2cccc(c2)C[C@H](NC(=O)c2cccnc2)C(=O)N[C@@H](CCc2ccccc2)C(=O)N1` [Compound 1-34], the IC50 stood at 2.85 µM.

As for `O=C(N[C@H]1Cc2cccc(c2)Oc2cccc(c2)C[C@@H](C(=O)NCc2ccccc2)NC(=O)[C@H](CCc2ccccc2)NC1=O)c1ccccn1` [Compound 1-12], the IC50 was 3.2 µM.

The values are drawn from patent publication US20240043470A1, “MACROCYCLIC COMPOUNDS AS PROTEASOME INHIBITORS” (CORNELL UNIVERSITY, priority 2017, published 2024).
